According to the supplement of paper PMC4862054:

What was measured:
Conditions in all cases: 72 h
[1] = test system: DU-4475
In short: (§1)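 The plates used were 384-well plates holding compound at 5 concentrations in 10-fold steps across a compound-specific 10,000-fold range, into which breast cancer cell lines were seeded in 20 µl suspension. Following 72 h incubation, CellTox Green fluorescence was read at 485/520 nm, and CellTiter-Glo luminescence was read after 10 min at room temperature. Normalisation on each plate used 0.1 % DMSO and a positive kill control. Dose-response curves gave the EC50, which was censored at the top concentration.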

[2] = test system: BT-474
In short: as §1

[3] = test system: MFM-223
In short: as §1

[4] = test system: HCC1937
In short: as §1

[5] = test system: Hs578T
In short: as §1

[6] = test system: HDQ-P1
In short: as §1

[7] = test system: MDA-MB-453
In short: as §1

[8] = test system: BT-549
In short: as §1

[9] = test system: MDA-MB-231
In short: as §1

[10] = test system: HCC1599
In short: as §1

[11] = test system: MDA-MB-436
In short: as §1

[12] = test system: MDA-MB-468
In short: as §1

[13] = test system: CAL-85-1
In short: as §1

[14] = test system: CAL-120
In short: as §1

[15] = test system: SK-BR-3
In short: as §1

[16] = test system: CAL-51
In short: as §1

Row | SMILES | EC50, CellTiter-Glo [1] | EC50, CellTiter-Glo [2] | EC50, CellTiter-Glo [3] | EC50, CellTiter-Glo [4] | EC50, CellTiter-Glo [5] | EC50, CellTiter-Glo [6] | EC50, CellTiter-Glo [7] | EC50, CellTiter-Glo [8] | EC50, CellTiter-Glo [9] | EC50, CellTiter-Glo [10] | EC50, CellTiter-Glo [11] | EC50, CellTiter-Glo [12] | EC50, CellTiter-Glo [13] | EC50, CellTiter-Glo [14] | EC50, CellTiter-Glo [15] | EC50, CellTiter-Glo [16]
1 | C=CCn1c(=O)c2cnc(Nc3ccc(N4CCN(C)CC4)cc3)nc2n1-c1cccc(C(C)(C)O)n1 [MK1775] | 1740 nM | 233 nM | 250 nM | 344 nM | 275 nM | 326 nM | 66.3 nM | 373 nM | 172 nM | 183 nM | 308 nM | 759 nM | 294 nM | 740 nM | 203 nM | 380 nM
2 | CCNC(=O)c1noc(-c2cc(C(C)C)c(O)cc2O)c1-c1ccc(CN2CCOCC2)cc1 [NVP-AUY922] | 33.1 nM | 42.4 nM | 10.2 nM | 28 nM | 41.8 nM | 14.1 nM | 42.6 nM | 11.7 nM | 40.4 nM | 37.1 nM | 5.43 nM | 4.55 nM | 38.8 nM | 37.2 nM | 7.09 nM | 34 nM
3 | O=[N+]([O-])c1ccc2c(c1)S(=O)(=O)C=C2 [Stattic] | 16300 nM | 7660 nM | 2730 nM | 2460 nM | 3130 nM | 12700 nM | 3720 nM | 1010 nM | 2760 nM | 10600 nM | 7930 nM | 446 nM | 1630 nM | 11000 nM | 8890 nM | 1540 nM
